Results: PubChem BioAssay (NCI)
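Briefly, cells in 96-well plates were exposed to five compound concentrations for 48 h, and endpoints were estimated by linear interpolation. The concentration for full growth arrest is given as TGI.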

Tested on: 786-0 renal
Experiment: NCI tumour cell line growth inhibition, 48 h

How did the TGI turn out when COc1c2nc(CCl)[nH]c(=O)c2c(OC)c2nc(CCl)[nH]c(=O)c12 was run?
Its TGI is greater than 100 µM.

With COc1ccccc1N1C(=O)/C(=C/c2ccc(N(CCC#N)CCC#N)cc2C)N=C1c1cc([N+](=O)[O-])ccc1Cl as the compound, how does the TGI read?
Its TGI is greater than 100 µM.

Which TGI does the source give for CCCCCCCCC[C@@H]1CC(=O)OCC2OC(O[C@H](CCCCCCCCC)CC(=O)OCC3OC(O[C@H](CCCCCCCCC)CC(=O)OCC4OC(O1)C(O)C(O)C4O)C(O)C(O)C3O)C(O)C(O)C2O (some centres not stated) here?
Its TGI is 16.2 µM.

With COc1ccc(-c2onc(-c3ccc([N+](=O)[O-])cc3)c2C2=NCCN2)cc1 as the compound, how does the TGI read?
Its TGI is 43 µM.

With Cc1cc(Cl)ccc1NC(=O)CCCC(=O)C1CCCC1=O (configuration not stated) as the compound, how does the TGI read?
The TGI was greater than 100 µM.

How did the TGI turn out when COc1ccc(NC(=O)C(=O)C(C(=O)c2ccccc2)C2OC(=O)c3ccccc32)c([N+](=O)[O-])c1 (configuration not stated) was run?
The TGI was greater than 100 µM.

Tested on: COLO 205 colon
Experiment: NCI tumour cell line growth inhibition, 48 h

How did the TGI turn out when COc1c2nc(CCl)[nH]c(=O)c2c(OC)c2nc(CCl)[nH]c(=O)c12 was run?
Its TGI is greater than 100 µM.

COc1ccccc1N1C(=O)/C(=C/c2ccc(N(CCC#N)CCC#N)cc2C)N=C1c1cc([N+](=O)[O-])ccc1Cl was tested. Which TGI did it give?
Its TGI is greater than 100 µM.

Which TGI does the source give for CCCCCCCCC[C@@H]1CC(=O)OCC2OC(O[C@H](CCCCCCCCC)CC(=O)OCC3OC(O[C@H](CCCCCCCCC)CC(=O)OCC4OC(O1)C(O)C(O)C4O)C(O)C(O)C3O)C(O)C(O)C2O (some centres not stated) here?
The TGI was 8.3 µM.

For COc1ccc(-c2onc(-c3ccc([N+](=O)[O-])cc3)c2C2=NCCN2)cc1, which TGI is on record?
Its TGI is greater than 100 µM.

How did the TGI turn out when Cc1cc(Cl)ccc1NC(=O)CCCC(=O)C1CCCC1=O (configuration not stated) was run?
Its TGI is greater than 100 µM.

For COc1ccc(NC(=O)C(=O)C(C(=O)c2ccccc2)C2OC(=O)c3ccccc32)c([N+](=O)[O-])c1 (configuration not stated), which TGI is on record?
Its TGI is greater than 100 µM.

How did the TGI turn out when O=C(Nc1ccc(Cl)cc1)C(=O)C(C(=O)c1ccccc1-c1ccccc1)C1OC(=O)c2ccccc21 (configuration not stated) was run?
The TGI was 44.4 µM.

Tested on: NCI-H23 lung
Experiment: NCI tumour cell line growth inhibition, 48 h

Which TGI does the source give for COc1c2nc(CCl)[nH]c(=O)c2c(OC)c2nc(CCl)[nH]c(=O)c12 here?
Its TGI is greater than 100 µM.

With COc1ccccc1N1C(=O)/C(=C/c2ccc(N(CCC#N)CCC#N)cc2C)N=C1c1cc([N+](=O)[O-])ccc1Cl as the compound, how does the TGI read?
The TGI was greater than 100 µM.

Which TGI does the source give for CCCCCCCCC[C@@H]1CC(=O)OCC2OC(O[C@H](CCCCCCCCC)CC(=O)OCC3OC(O[C@H](CCCCCCCCC)CC(=O)OCC4OC(O1)C(O)C(O)C4O)C(O)C(O)C3O)C(O)C(O)C2O (some centres not stated) here?
Its TGI is 30.6 µM.

With COc1ccc(-c2onc(-c3ccc([N+](=O)[O-])cc3)c2C2=NCCN2)cc1 as the compound, how does the TGI read?
The TGI was greater than 100 µM.

How did the TGI turn out when Cc1cc(Cl)ccc1NC(=O)CCCC(=O)C1CCCC1=O (configuration not stated) was run?
Its TGI is greater than 100 µM.

Which TGI does the source give for COc1ccc(NC(=O)C(=O)C(C(=O)c2ccccc2)C2OC(=O)c3ccccc32)c([N+](=O)[O-])c1 (configuration not stated) here?
The TGI was greater than 100 µM.

With O=C(Nc1ccc(Cl)cc1)C(=O)C(C(=O)c1ccccc1-c1ccccc1)C1OC(=O)c2ccccc21 (configuration not stated) as the compound, how does the TGI read?
The TGI was 53.4 µM.

Tested on: SR leukemia
Experiment: NCI tumour cell line growth inhibition, 48 h

Which TGI does the source give for COc1ccccc1N1C(=O)/C(=C/c2ccc(N(CCC#N)CCC#N)cc2C)N=C1c1cc([N+](=O)[O-])ccc1Cl here?
Its TGI is greater than 100 µM.

CCCCCCCCC[C@@H]1CC(=O)OCC2OC(O[C@H](CCCCCCCCC)CC(=O)OCC3OC(O[C@H](CCCCCCCCC)CC(=O)OCC4OC(O1)C(O)C(O)C4O)C(O)C(O)C3O)C(O)C(O)C2O (some centres not stated) was tested. Which TGI did it give?
Its TGI is 20.6 µM.

How did the TGI turn out when COc1ccc(-c2onc(-c3ccc([N+](=O)[O-])cc3)c2C2=NCCN2)cc1 was run?
Its TGI is greater than 100 µM.

COc1ccc(NC(=O)C(=O)C(C(=O)c2ccccc2)C2OC(=O)c3ccccc32)c([N+](=O)[O-])c1 (configuration not stated) was tested. Which TGI did it give?
The TGI was greater than 100 µM.

O=C(Nc1ccc(Cl)cc1)C(=O)C(C(=O)c1ccccc1-c1ccccc1)C1OC(=O)c2ccccc21 (configuration not stated) was tested. Which TGI did it give?
The TGI was 82.9 µM.

Tested on: MOLT-4 leukemia
Experiment: NCI tumour cell line growth inhibition, 48 h

For COc1c2nc(CCl)[nH]c(=O)c2c(OC)c2nc(CCl)[nH]c(=O)c12, which TGI is on record?
Its TGI is greater than 100 µM.

COc1ccccc1N1C(=O)/C(=C/c2ccc(N(CCC#N)CCC#N)cc2C)N=C1c1cc([N+](=O)[O-])ccc1Cl was tested. Which TGI did it give?
Its TGI is greater than 100 µM.

CCCCCCCCC[C@@H]1CC(=O)OCC2OC(O[C@H](CCCCCCCCC)CC(=O)OCC3OC(O[C@H](CCCCCCCCC)CC(=O)OCC4OC(O1)C(O)C(O)C4O)C(O)C(O)C3O)C(O)C(O)C2O (some centres not stated) was tested. Which TGI did it give?
Its TGI is 20.6 µM.

With COc1ccc(-c2onc(-c3ccc([N+](=O)[O-])cc3)c2C2=NCCN2)cc1 as the compound, how does the TGI read?
Its TGI is greater than 100 µM.

With Cc1cc(Cl)ccc1NC(=O)CCCC(=O)C1CCCC1=O (configuration not stated) as the compound, how does the TGI read?
The TGI was greater than 100 µM.

Which TGI does the source give for COc1ccc(NC(=O)C(=O)C(C(=O)c2ccccc2)C2OC(=O)c3ccccc32)c([N+](=O)[O-])c1 (configuration not stated) here?
The TGI was greater than 100 µM.

How did the TGI turn out when O=C(Nc1ccc(Cl)cc1)C(=O)C(C(=O)c1ccccc1-c1ccccc1)C1OC(=O)c2ccccc21 (configuration not stated) was run?
Its TGI is greater than 100 µM.

Tested on: NCI-H226 lung
Experiment: NCI tumour cell line growth inhibition, 48 h

For COc1c2nc(CCl)[nH]c(=O)c2c(OC)c2nc(CCl)[nH]c(=O)c12, which TGI is on record?
Its TGI is greater than 100 µM.

COc1ccccc1N1C(=O)/C(=C/c2ccc(N(CCC#N)CCC#N)cc2C)N=C1c1cc([N+](=O)[O-])ccc1Cl was tested. Which TGI did it give?
Its TGI is greater than 100 µM.

With CCCCCCCCC[C@@H]1CC(=O)OCC2OC(O[C@H](CCCCCCCCC)CC(=O)OCC3OC(O[C@H](CCCCCCCCC)CC(=O)OCC4OC(O1)C(O)C(O)C4O)C(O)C(O)C3O)C(O)C(O)C2O (some centres not stated) as the compound, how does the TGI read?
The TGI was 24.6 µM.

For COc1ccc(-c2onc(-c3ccc([N+](=O)[O-])cc3)c2C2=NCCN2)cc1, which TGI is on record?
Its TGI is greater than 100 µM.

For Cc1cc(Cl)ccc1NC(=O)CCCC(=O)C1CCCC1=O (configuration not stated), which TGI is on record?
The TGI was greater than 100 µM.

How did the TGI turn out when COc1ccc(NC(=O)C(=O)C(C(=O)c2ccccc2)C2OC(=O)c3ccccc32)c([N+](=O)[O-])c1 (configuration not stated) was run?
Its TGI is greater than 100 µM.

With O=C(Nc1ccc(Cl)cc1)C(=O)C(C(=O)c1ccccc1-c1ccccc1)C1OC(=O)c2ccccc21 (configuration not stated) as the compound, how does the TGI read?
Its TGI is 24 µM.

Tested on: UO-31 renal
Experiment: NCI tumour cell line growth inhibition, 48 h

How did the TGI turn out when COc1c2nc(CCl)[nH]c(=O)c2c(OC)c2nc(CCl)[nH]c(=O)c12 was run?
Its TGI is greater than 100 µM.

Which TGI does the source give for COc1ccccc1N1C(=O)/C(=C/c2ccc(N(CCC#N)CCC#N)cc2C)N=C1c1cc([N+](=O)[O-])ccc1Cl here?
The TGI was greater than 100 µM.

With CCCCCCCCC[C@@H]1CC(=O)OCC2OC(O[C@H](CCCCCCCCC)CC(=O)OCC3OC(O[C@H](CCCCCCCCC)CC(=O)OCC4OC(O1)C(O)C(O)C4O)C(O)C(O)C3O)C(O)C(O)C2O (some centres not stated) as the compound, how does the TGI read?
The TGI was 24.6 µM.

How did the TGI turn out when COc1ccc(-c2onc(-c3ccc([N+](=O)[O-])cc3)c2C2=NCCN2)cc1 was run?
Its TGI is greater than 100 µM.

With Cc1cc(Cl)ccc1NC(=O)CCCC(=O)C1CCCC1=O (configuration not stated) as the compound, how does the TGI read?
Its TGI is greater than 100 µM.

With COc1ccc(NC(=O)C(=O)C(C(=O)c2ccccc2)C2OC(=O)c3ccccc32)c([N+](=O)[O-])c1 (configuration not stated) as the compound, how does the TGI read?
The TGI was greater than 100 µM.

With O=C(Nc1ccc(Cl)cc1)C(=O)C(C(=O)c1ccccc1-c1ccccc1)C1OC(=O)c2ccccc21 (configuration not stated) as the compound, how does the TGI read?
Its TGI is 36.6 µM.

Tested on: M14 melanoma
Experiment: NCI tumour cell line growth inhibition, 48 h

With COc1c2nc(CCl)[nH]c(=O)c2c(OC)c2nc(CCl)[nH]c(=O)c12 as the compound, how does the TGI read?
Its TGI is greater than 100 µM.
